Source: the supplement of paper PMC4862054

What was measured:
[1] = tested on: MDA-MB-468; test: drug sensitivity score (DSS), CellTiter-Blue viability (DSS (AUC-based score)); higher = stronger viability inhibition; extreme values may be limits of the assay; conditions: incubation time: 72 h
Experimental: (§1)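 DSRT with the CellTiter-Blue (resazurin reduction) viability readout, fluorescence 560/590 nm, 72 h incubation. Plates were normalised to DMSO and benzethonium chloride controls. DSS is computed from the area under the fitted dose-response curve (5 or 9 concentrations).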

[2] = tested on: HCC1143; test: as above; conditions: incubation time: 72 h
Experimental: as §1

[3] = tested on: CAL-51; test: as above; conditions: incubation time: 72 h
Experimental: as §1

[4] = tested on: SK-BR-3; test: as above; conditions: incubation time: 72 h
Experimental: as §1

[5] = tested on: HDQ-P1; test: as above; conditions: incubation time: 72 h
Experimental: as §1

[6] = tested on: CAL-148; test: as above; conditions: incubation time: 72 h
Experimental: as §1

[7] = tested on: CAL-120; test: as above; conditions: incubation time: 72 h
Experimental: as §1

[8] = tested on: CAL-85-1; test: as above; conditions: incubation time: 72 h
Experimental: as §1

[9] = tested on: BT-474; test: normalised viability (% of control), CellTiter-Blue; higher = more viable cells (about 100 = DMSO control); conditions: incubation time: 72 h
Method in brief: (§2)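 After 72 h on compound-loaded 384-well plates, breast cancer cell lines received 2.5 µl CellTiter-Blue reagent for 2 h at 37 °C. Fluorescence at 560/590 nm was scaled per plate so that vehicle was 100 and a positive kill control was 0. The value stands for normalised viability at a single listed concentration of the series.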

[10] = tested on: MDA-MB-468; test: as above; conditions: incubation time: 72 h
Method in brief: as §2

[11] = tested on: BT-549; test: as above; conditions: incubation time: 72 h
Method in brief: as §2

[12] = tested on: Hs578T; test: as above; conditions: incubation time: 72 h
Method in brief: as §2

[13] = tested on: MDA-MB-453; test: as above; conditions: incubation time: 72 h
Method in brief: as §2

[14] = tested on: MFM-223; test: as above; conditions: incubation time: 72 h
Method in brief: as §2

[15] = tested on: DU-4475; test: as above; conditions: incubation time: 72 h
Method in brief: as §2

[16] = tested on: SK-BR-3; test: as above; conditions: incubation time: 72 h
Method in brief: as §2

[17] = tested on: HCC1599; test: as above; conditions: incubation time: 72 h
Method in brief: as §2

[18] = tested on: MDA-MB-231; test: as above; conditions: incubation time: 72 h
Method in brief: as §2

[19] = tested on: HDQ-P1; test: as above; conditions: incubation time: 72 h
Method in brief: as §2

[20] = tested on: CAL-148; test: as above; conditions: incubation time: 72 h
Method in brief: as §2

[21] = tested on: HCC1937; test: as above; conditions: incubation time: 72 h
Method in brief: as §2

[22] = tested on: CAL-85-1; test: as above; conditions: incubation time: 72 h
Method in brief: as §2

[23] = tested on: CAL-51; conditions: 72 h
Method in brief: (§3)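 Viability of breast cancer cell lines was measured with CellTiter-Blue after 72 h of incubation on compound-loaded 384-well plates. Cells were seeded in 20 µl onto compound dissolved in 5 µl medium, and 2.5 µl reagent was added for 2 h at 37 °C before reading at 560/590 nm. EC50 was fitted from percent-inhibition dose-response data censored at the highest concentration, normalised per plate to vehicle and a positive kill control, with zero drug sensitivity score rows dropped.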

[24] = tested on: CAL-148; conditions: 72 h
Method in brief: as §3

Nc1nc(Cl)nc2c1ncn2[C@H]1C[C@H](O)[C@@H](CO)O1 [Cladribine]
Conditions	EC50, CellTiter-Blue viability [nM]	drug sensitivity score
[1]	–	0
[2]	–	3.82
[3]	–	0.39
[4]	–	1.21
[5]	–	0
[6]	–	0.812
[7]	–	3.94
[8]	–	0
[23]	> 1000	–
[24]	> 1000	–

normalised viability [%]
Conditions	0.3 nM	1 nM	3 nM	10 nM	100 nM	1000 nM
[9]	–	112	–	–	102	103
[10]	–	99.6	–	–	94.4	82.8
[11]	–	82.5	–	–	86.4	45.8
[12]	–	111	–	–	104	105
[13]	126	–	97.4	89.7	–	–
[14]	–	86.2	–	–	86.7	90
[15]	106	–	104	102	–	–
[16]	–	92.6	–	–	99.7	42.4
[17]	–	97.8	–	–	83	91.7
[18]	–	101	–	–	67	71.9
[19]	113	–	101	109	–	–
[20]	91.9	–	109	93	–	–
[21]	–	91.8	–	–	56.8	43.4
[22]	102	–	101	105	–	–

Nc1ccn([C@@H]2O[C@H](CO)[C@@H](O)[C@@H]2O)c(=O)n1 [Cytarabine]
Conditions	EC50, CellTiter-Blue viability [nM]	drug sensitivity score
[1]	–	6.23
[2]	–	6.95
[3]	–	15.4
[4]	–	8.27
[5]	–	0
[6]	–	19.2
[7]	–	7.69
[8]	–	3.04
[23]	266	–
[24]	32.3	–

normalised viability [%]
Conditions	3 nM	10 nM	30 nM	100 nM	1000 nM	10000 nM
[9]	–	103	–	–	95.7	93.4
[10]	–	101	–	–	68.4	57.2
[11]	–	87.2	–	–	65.7	62.9
[12]	–	90.4	–	–	67.8	62.3
[13]	101	–	111	94.9	–	–
[14]	–	107	–	–	95.6	97.3
[15]	121	–	87.8	93.9	–	–
[16]	–	97.3	–	–	64.7	47.2
[17]	–	109	–	–	78.7	77.4
[18]	–	100	–	–	67	61.7
[19]	80.6	–	94.8	42.5	–	–
[20]	95.9	–	68.9	47.9	–	–
[21]	–	124	–	–	41.6	42.6
[22]	106	–	97.4	104	–	–
